Results published in patent US10124004B2, “Pyrido[3,4-d]pyrimidine derivative and pharmaceutically acceptable salt thereof” (Teijin Pharma Limited, priority 2015, dated 2018).

What follows are compounds tested against T1, CDK4/cyclin D3 (Homo sapiens, UniProt P11802) (assay: Human CDK4/cyclin D3 inhibitory activity (QS S Assist CDK4/Cyclin D3_FP Kit, IMAP fluorescence polarization)). Conditions: 50% inhibitory concentration against CDK4/cyclin D3, given as class symbol.
T1 construct: purchased Carna Biosciences, Inc. QS S Assist CDK4/Cyclin D3_FP Kit
T1 sequence (P11802 whole entry): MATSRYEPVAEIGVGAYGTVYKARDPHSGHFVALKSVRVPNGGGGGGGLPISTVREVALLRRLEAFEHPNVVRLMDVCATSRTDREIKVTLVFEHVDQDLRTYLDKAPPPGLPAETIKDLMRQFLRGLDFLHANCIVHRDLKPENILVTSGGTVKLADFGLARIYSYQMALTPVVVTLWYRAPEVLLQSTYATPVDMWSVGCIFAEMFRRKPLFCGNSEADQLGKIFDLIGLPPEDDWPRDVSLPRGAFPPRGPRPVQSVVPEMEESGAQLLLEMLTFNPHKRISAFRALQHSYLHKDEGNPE
T1 sequence (P30281 whole entry partner): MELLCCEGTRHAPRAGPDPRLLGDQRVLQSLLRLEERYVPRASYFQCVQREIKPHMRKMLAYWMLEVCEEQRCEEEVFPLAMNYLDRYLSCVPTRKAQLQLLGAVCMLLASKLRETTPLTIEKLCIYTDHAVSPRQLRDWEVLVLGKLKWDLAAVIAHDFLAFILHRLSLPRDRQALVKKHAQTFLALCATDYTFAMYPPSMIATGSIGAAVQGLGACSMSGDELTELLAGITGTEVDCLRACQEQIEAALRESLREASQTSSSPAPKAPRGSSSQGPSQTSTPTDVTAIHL
Assay type: biochemical
Procedure, shortened: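 Percent inhibition, relative to DMSO with and without enzyme, was curve-fitted to give IC50 from polarization (ex 485, em 535 nm). The 45-min room-temperature reaction used 12.5-25 ng/well enzyme, kit ATP/substrate/metal mix, and HEPES pH 7.4 buffer with Tween20 and DTT, followed by 30-min IMAP binding in the dark.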

Compared with `CC(C)Nc1nc([C@@H](C)O)cc2cnc(Nc3ccc(N4CC5CC(C4)C5O)nn3)nc12` (some centres unmarked) [Compound 687], `CO[C@H](C)c1cc2cnc(Nc3ccc(N4CCN(CCC(=O)O)CC4)nn3)nc2c(NC(C)C)n1` [Compound 684, (R)-3-(4-(6-((8-(isopropylamino)-6-(l-methoxyethyl)pyrido[3,4-d]pyrimidin-2-yl)amino)pyridazin-3-yl)piperazin-1-yl)propanoic acid] is higher in IC50: < 10 nM for the first, 10 to 100 nM for the second.

Same assay, conditions: Human CDK4/cyclin D3 inhibitory activity; read-out: CDK4 Activity symbol

`CO[C@H](C)c1cc2cnc(Nc3ccc(N4CC5(CNC5)C4)cn3)nc2c(NC(C)C)n1` [Compound 476] and `CO[C@H](C)c1cc2cnc(Nc3ccc(N4CC5(CCCNC5)C4)cn3)nc2c(NC(C)C)n1` [Compound 477] cannot be ordered by IC50: < 10 nM for the first, < 10 nM for the second.

First: CO[C@H](C)c1cc2cnc(Nc3ccc(N4CC5(CCN5)C4)cn3)nc2c(NC(C)C)n1 [Compound 478]
Second: CO[C@H](C)c1cc2cnc(Nc3ccc(N4CC5(CCC5)C4)cn3)nc2c(NC(C)C)n1 [Compound 480]
The IC50 of the first is lower: < 10 nM for the first, 10 to 100 nM for the second.

`COC(C)c1cc2cnc(Nc3ccc(CN4CCNCC4)cn3)nc2c(NC2CN3CCC2CCOC3=O)n1` (centres unmarked) [Compound 415] and `COC(C)c1cc2cnc(Nc3ccc(CN4CCNCC4)cn3)nc2c(NC2CCC(O)C2)n1` (centres unmarked) [Compound 427] cannot be ordered by IC50: < 10 nM for the first, < 10 nM for the second.

`CC(C)Nc1nc([C@@H](C)O)cc2cnc(Nc3ccc(OCC4CNC4)cn3)nc12` [Compound 570] and `CC(C)Nc1nc([C@@H](C)O)cc2cnc(Nc3ccc(OCC4(F)CNC4)cn3)nc12` [Compound 578] cannot be ordered by IC50: < 10 nM for the first, < 10 nM for the second.

`CO[C@H](C)c1cc2cnc(Nc3ccc(N4CCNC(=O)C4)nn3)nc2c(NC(C)C)n1` [Compound 362] and `CO[C@H](C)c1cc2cnc(Nc3ccc(N4CCN(C(C)(C)C)CC4)nn3)nc2c(NC(C)C)n1` [Compound 599] fall in the same range of IC50: 10 to 100 nM for the first, 10 to 100 nM for the second.

`COC(C)c1cc2cnc(Nc3ccc(CN4CCNCC4)cn3)nc2c(NC2(C)CCOCC2)n1` (centres unmarked) [Compound 420] and `COC(C)c1cc2cnc(Nc3ccc(CN4CCNCC4)cn3)nc2c(NC2CCOC(C)(C)C2)n1` (centres unmarked) [Compound 410] cannot be ordered by IC50: < 10 nM for the first, < 10 nM for the second.

`COC(C)c1cc2cnc(Nc3ccc(CN4CCNC5(CC5)C4)cn3)nc2c(NC(C)C)n1` (centres unmarked) [Compound 515] and `CO[C@H](C)c1cc2cnc(Nc3ccc(CN4CCC(F)CC4)cn3)nc2c(NC(C)C)n1` [Compound 472] fall in the same range of IC50: 10 to 100 nM for the first, 10 to 100 nM for the second.

`CC(C)Nc1nc([C@@H](C)O)cc2cnc(Nc3ccc(N4CCCN(C)CC4)nn3)nc12` [Compound 490] and `CC(C)Nc1nc([C@@H](C)O)cc2cnc(Nc3ccc(N4CCCC(O)C4)nn3)nc12` (some centres unmarked) [Compound 517] cannot be ordered by IC50: < 10 nM for the first, < 10 nM for the second.

First: COC(C)c1cc2cnc(Nc3ccc(CN4CCNCC4)cn3)nc2c(NC2CCCN(C(C)=O)C2)n1 (centres unmarked) [Compound 405]
Second: COC(C)c1cc2cnc(Nc3ccc(CN4CCNCC4)cn3)nc2c(NC2CCCC2)n1 (centres unmarked) [Compound 417]
The IC50 of the first is higher: 10 to 100 nM for the first, < 10 nM for the second. The second is the more potent here.

First: CO[C@H](C)c1cc2cnc(Nc3ccc(CN4CCNCC4)cn3)nc2c(NC2CCS(=O)(=O)CC2)n1 [Compound 361]
Second: COC(C)c1cc2cnc(Nc3ccc(CN4CCNCC4)cn3)nc2c(NC2CCNCC2)n1 (centres unmarked) [Compound 399]
The IC50 of the first is lower: < 10 nM for the first, 10 to 100 nM for the second. The first is the more potent here.

Compared with `CC(C)Nc1nc([C@@H](C)O)cc2cnc(Nc3ccc(N4CCNCC(C)(C)C4=O)cn3)nc12` [Compound 543], `CC(C)Nc1nc([C@@H](C)O)cc2cnc(Nc3ccc(N4CCNC(C)(C)C4=O)cn3)nc12` [Compound 440] is higher in IC50: < 10 nM for the first, 10 to 100 nM for the second.

Compared with `CO[C@H](C)c1cc2cnc(Nc3ccc(N4CC(=O)NCC4=O)cn3)nc2c(NC(C)C)n1` [Compound 533], `CO[C@H](C)c1cc2cnc(Nc3ccc(N4CCC(F)CC4)cn3)nc2c(NC(C)C)n1` [Compound 469] is higher in IC50: < 10 nM for the first, 10 to 100 nM for the second.

`COC(C)c1cc2cnc(Nc3ccc(O[C@H]4CCNC[C@H]4F)cn3)nc2c(NC(C)C)n1` (relative stereo) [Compound 460] and `CO[C@H](C)c1cc2cnc(Nc3ccc(OC4CC5(CNC5)C4)cn3)nc2c(NC(C)C)n1` [Compound 483] cannot be ordered by IC50: < 10 nM for the first, < 10 nM for the second.

`CN(C)CCOc1ccc(Nc2ncc3cc(C(F)F)nc(N[C@H]4CC[C@@H](O)CC4)c3n2)nc1` [Compound 426] and `O[C@H]1CC[C@@H](Nc2nc(C(F)F)cc3cnc(Nc4ccc(CN5CCNCC5)cn4)nc23)CC1` [Compound 424] cannot be ordered by IC50: < 10 nM for the first, < 10 nM for the second.

`COC(C)c1cc2cnc(Nc3ccc(CN4CCNCC4)cn3)nc2c(N[C@H]2CC[C@@](C)(C(=O)O)CC2)n1` (some centres unmarked) [Compound 437] and `COC(C)c1cc2cnc(Nc3ccc(CN4CCNCC4)cn3)nc2c(N[C@H]2CC[C@](C)(C(=O)O)CC2)n1` (some centres unmarked) [Compound 436] cannot be ordered by IC50: ≥ 100 nM for the first, 10 to 100 nM for the second.

First: CC1(C)NCCN(c2ccc(Nc3ncc4cc(C(F)F)nc(NC5CCOCC5)c4n3)nc2)C1=O [Compound 439]
Second: COC(C)c1cc2cnc(Nc3ccc(CN4CCNCC4)cn3)nc2c(NC2CCCC(O)C2)n1 (centres unmarked) [Compound 397]
The IC50 of the first is higher: 10 to 100 nM for the first, < 10 nM for the second.

First: CO[C@H](C)c1cc2cnc(Nc3ncc(N4CCNCC4)cn3)nc2c(NC(C)C)n1 [Compound 374]
Second: CO[C@H](C)c1cc2cnc(Nc3ccc(N4C5CCC4CNC5)cn3)nc2c(NC(C)C)n1 [Compound 500]
The IC50 of the first is higher: 10 to 100 nM for the first, < 10 nM for the second. The second is the more potent here.

First: CO[C@H](C)c1cc2cnc(Nc3ccc(N(C)C(=O)C4CCNCC4)cn3)nc2c(NC(C)C)n1 [Compound 377]
Second: CO[C@H](C)c1cc2cnc(Nc3ccc(CN4CCC(O)CC4)cn3)nc2c(NC(C)C)n1 [Compound 494]
The IC50 of the first is higher: 10 to 100 nM for the first, < 10 nM for the second.

`CO[C@H](C)c1cc2cnc(Nc3ccc(OC4CC5CCC(C4)N5)cn3)nc2c(NC(C)C)n1` (some centres unmarked) [Compound 504] and `CO[C@H](C)c1cc2cnc(Nc3ccc(N4C[C@@H]5C[C@H]4CN5)cn3)nc2c(NC(C)C)n1` [Compound 525] cannot be ordered by IC50: < 10 nM for the first, < 10 nM for the second.

`COC(C)c1cc2cnc(Nc3ccc(CN4CCNCC4)cn3)nc2c(N[C@H]2CC[C@H](OC(C)C)CC2)n1` (some centres unmarked) [Compound 464] and `COC(C)c1cc2cnc(Nc3ccc(CN4CCNCC4)cn3)nc2c(NC(C)C2CCCO2)n1` (centres unmarked) [Compound 409] cannot be ordered by IC50: < 10 nM for the first, < 10 nM for the second.

First: COC(C)c1cc2cnc(Nc3ccc(CN4CCNCC4)cn3)nc2c(NCC2CNC(=O)C2)n1 (centres unmarked) [Compound 406]
Second: COC(C)c1cc2cnc(Nc3ccc(CN4CCNCC4)cn3)nc2c(NC[C@H]2CCCO2)n1 (some centres unmarked) [Compound 411]
The IC50 of the first is higher: 10 to 100 nM for the first, < 10 nM for the second.

`COC(C)c1cc2cnc(Nc3ccc(CN4CCNCC4)cn3)nc2c(Nc2ccc(C(=O)O)cc2)n1` (centres unmarked) [Compound 448] and `COC(C)c1cc2cnc(Nc3ccc(CN4CCNCC4)cn3)nc2c(NC[C@@H]2CCCO2)n1` (some centres unmarked) [Compound 408] cannot be ordered by IC50: ≥ 100 nM for the first, 10 to 100 nM for the second.

`CO[C@H](C)c1cc2cnc(Nc3ccc(OCC(F)CN(C)C)cn3)nc2c(NC(C)C)n1` (some centres unmarked) [Compound 487] and `COC(C)c1cc2cnc(Nc3ccc(OCC4(N)CC4)cn3)nc2c(NC(C)C)n1` (centres unmarked) [Compound 457] cannot be ordered by IC50: < 10 nM for the first, < 10 nM for the second.

Compared with `CO[C@H](C)c1cc2cnc(Nc3ccc(NC4CC5(CNC5)C4)cn3)nc2c(NC(C)C)n1` [Compound 485], `CNC1(COc2ccc(Nc3ncc4cc(C(C)OC)nc(NC(C)C)c4n3)nc2)CC1` (centres unmarked) [Compound 461] is higher in IC50: < 10 nM for the first, 10 to 100 nM for the second.

`CC(C)Nc1nc([C@@H](C)O)cc2cnc(Nc3ccc(OC4CNC4)nn3)nc12` [Compound 546] and `CC(C)Nc1nc([C@@H](C)O)cc2cnc(Nc3ccc(O[C@@H]4CCNC[C@@H]4F)nn3)nc12` [Compound 564] cannot be ordered by IC50: < 10 nM for the first, < 10 nM for the second.

Compared with `CO[C@H](C)c1cc2cnc(Nc3ccc(OCC4(N)CCC4)cn3)nc2c(NC(C)C)n1` [Compound 505], `CC(C)Nc1nc([C@@H](C)O)cc2cnc(Nc3ccc(N4CCC(N5CCOCC5)CC4)nn3)nc12` [Compound 520] is lower in IC50: 10 to 100 nM for the first, < 10 nM for the second.

What follows are compounds tested against T2, CDK2/cyclin A2 (Homo sapiens, UniProt P24941) (assay: Human CDK2/cyclin A2 inhibitory activity (QS S Assist CDK2/Cyclin A2_FP Kit, IMAP fluorescence polarization)). Conditions: 50% inhibitory concentration against CDK2/cyclin A2, given as class symbol.
T2 construct: purchased Carna Biosciences, Inc. QS S Assist CDK2/Cyclin A2_FP Kit
Assay type: biochemical
Description: Human CDK2/Cyclin A^2 Inhibitory Activity
Each compound was analyzed for CDK2/cyclin A2 inhibitory activity with an assay kit (QS S Assist CDK2/Cyclin A2_FP Kit, available from Carna Biosciences, Inc.). This assay kit determines kinase activity on the basis of the IMAP technology by Molecular Devices. Specifically, the kinase activity is determined through quantification of a variation in fluorescent polarization caused by binding of a kinase-phosphorylated fluorescent substance to an IMAP-binding reagent.
An assay buffer was prepared by 10-fold dilution of the 10× assay buffer attached to the kit with distilled water, and each solution was prepared with the assay buffer. The assay buffer contained 20 mM HEPES (pH 7.4), 0.01% Tween 20, and 2 mM dithiothreitol. A test compound solution was prepared by dilution of the test compound with dimethyl sulfoxide (DMSO) to a concentration 100 times higher than the final concentration and then 25-fold dilution with the assay buffer to a concentration four times higher than the final concentration. An ATP/substrate/Metal solution was prepared by five-fold dilution of the 5×ATP/substrate/Metal solution attached to the kit with the assay buffer. An enzyme solution was prepared by dilution of the CDK2/cyclin A2 attached to the kit with the assay buffer to a concentration twice higher than the final concentration (final concentration of CDK2/cyclin A2: 2.5 ng/well). A detection reagent was prepared by five-fold dilution of 5×IMAP-binding buffer A with distilled water and 400-fold dilution of the IMAP-binding reagent with the diluted buffer.
The test compound solution (5 μL/well) and the ATP/substrate/Metal solution (5 μL/well) were added to a 384-well plate, and the enzyme solution or the assay buffer (10 μL/well) was added to the plate (total amount of the reaction mixture: 20 μL/well) for initiation of enzymatic reaction. […] The reaction was performed at room temperature for 60 minutes, and the detection reagent (60 μL/well) was then added to the plate, followed by further reaction for 30 minutes at room temperature under light shielding conditions. Subsequently, fluorescent polarization was determined with a microplate reader at an excitation wavelength of 485 nm and an emission wavelength of 535 nm.
The percent inhibition of enzyme activity was calculated for each test compound (note: enzyme activity=100% in the case of addition of the enzyme solution and addition of DMSO instead of the test compound solution, whereas enzyme activity=0% in the case of addition of the assay buffer instead of the enzyme solution and addition of DMSO instead of the test compound solution). The percent inhibition of enzyme activity was fitted to a dose-response curve, to determine a 50% inhibitory concentration against CDK2/cyclin A2.
In each table, “+++” corresponds to IC50<10 nM, “++” 10 nM≤IC50<100 nM, and “+” 100 nM≤IC50.

`CCCNc1nc([C@@H](C)O)cc2cnc(Nc3ccc(CN4CCCC(O)C4)cn3)nc12` (some centres unmarked) [Compound 1082] and `CC(C)Nc1nc([C@@H](C)O)cc2cnc(Nc3ccc(N4CCN(C(=O)C5CCCO5)CC4)nn3)nc12` (some centres unmarked) [Compound 1184] cannot be ordered by IC50: ≥ 100 nM for the first, ≥ 100 nM for the second.
